Common to all, as to type: binding
Data set [1] has as its system intact ZIKV particles. The data set is described as follows: Direct ELISA vs intact ZIKV particles. The note with it: for LOD: LOD=SB+3×SDB, interpolated from calibration curve; for FPLR maximum / FPLR minimum: delta absorbance 450 nm; for Long-term stability: dose-response performance of the assay; for FPLR C50 / FPLR slope: four-parameter logistic fit; for FPLR Dynamic Range: optimized peptide concentration of Table 5 (0.5-20 μM; 4G2 1 μg/ml); for dynamic range of dose-response curve (orders of magnitude): in words. As for the experimental part: Before biotin functionalization, peptides stock solution was reduced using trialkylphosphine (TCEP) from ThermoFisher Scientific (www.thermofisher.com) and after 1 h the gel was removed using TCEP gel spin separation columns (ThermoFisher Scientific). Then, 2-fold molar excess of EZ-Link™ Maleimide-PEG2-Biotin (ThermoFisher Scientific) was added to purified peptide solution and incubated for 1 h. […] Therefore, no further separation was carried out.
(§1) To optimize all parameters of the direct ELISA protocol, Pierce 96-Well Polystyrene Plates, (ThermoFisher Scientific) were coated overnight at 4° C. with different concentrations of intact virus particles (ZIKV or DENV). The intact virus particles were diluted using 100 mM NaHCO3, pH 9.6, and aliquots of 100 μL were dispensed into each well of the plate using a multichannel pipette. This buffer pH assured a strong hydrophobic binding interaction between polystyrene and virus particles.
(§2) Intact particles both ZIKV and DENV were provided by Dr. Watkins group (University of Miami, Dep. of Pathology). The samples were controlled and counted by focus forming assay and RT-PCR, the details were reported in a previous work (Magnani et al., 2017). The Intact particles of ZIKV were inactivated using gamma irradiation. Assay biohazardous steps were carried out according to standard safety procedures.
(§3) After coating the plates overnight, the intact virus particles were removed by washing five times with the washing buffer (PBST) 10 mM PBS pH 7.4, 0.1% Tween-20, using an automated plate washer (MultiWash+, Molecular Devices, Sunnyvale, Calif.). Then, the plates were blocked with 200 μL of blocking buffers while shaking at 300 rpm at room temperature. The blocking buffers used were: Pierce™ Protein-Free (PBS) Blocking Buffer (PF), Blocker™ BLOTTO in TBS, SuperBlock™ Blocking Buffer, Blocker™ BSA (1×) in PBS. All blocking buffer were from ThermoFisher Scientific.
(§4) After 2 h the blocking buffers were removed using the same washing procedure mentioned above. 100 μL-aliquots of several dilutions of peptides biotinylated in 10 mM PBS pH 7.4 were placed in each well and incubated for 2 h while shaking at 300 rpm at room temperature. After the incubation, the unreacted peptides were removed by using the plate washer with the same settings. Then, 100 μL-aliquots of streptavidin-HRP (ThermoFisher Scientific) at a concentration of 20 ng/mL were added into each well and incubated for 30 min at room temperature without shaking. After the incubation, excess streptavidin-HRP was removed and the wells were washed with the plate washer five times using the washing buffer. Finally, 100 μL-aliquots of the Ultra TMB-ELISA Substrate Solution (ThermoFisher Scientific) were added and after 10 min the reaction was stopped by adding 100 μL aliquots of the TMB stop solution (SeraCare). The emission (450 nm) was read using a microplate reader (Clariostar Optima; BMG Labtech, Ortenberg, Germany).
The corresponding blank signals in triplicates were obtained by using all reagents without peptides. The blank signal was then subtracted to the average absorbance values for triplicate wells of each test.
The eight clamp peptides and the four mono-arm peptides selected, were tested vs intact ZIKV particles by using a direct ELISA. The peptides were biotinylated by using the maleimide-PEG2-biotin reagent that reacts with the sulfhydryl group of the cysteine efficiently and specifically by forming a stable thioether bond. The antibody 4G2 hybridoma mouse IgG2a was used as the reference and employed in combination with an anti-mouse IgG conjugated to HRP.
All analytical parameters involved in the development of ELISA were optimized by using 96-well plates coated with triplicate 10-fold serial dilutions of intact ZIKV particles.
Thus, the peptide concentrations reported in Table 5 were used to estimate the dynamic range and the LOD of the assay by using 10-fold serial dilutions of intact ZIKV particles from 10^^1 to 10^^8 copies/mL. […]
Background: In an ELISA, binding on a coated surface is turned into a signal by an enzyme label.

The test system of data set [2] is intact DENV particles (DENV-1, -2 and -3). The data set is described as follows: Cross-reactivity direct ELISA vs DENV serotypes. On the procedure: as §1, §2, §3, §4
The cross-reactivity among Flaviviruses is a key parameter to be tested for this assay. […]

Data set [3] relates to intact ZIKV particles. The data set is described as follows: Direct ELISA matrix effect in urine and serum. The following applies: urine 1:1, serum 1:10 diluted; 10^5 and 10^6 copies/mL ZIKV. On the procedure:
Usually, the presence of ZIKV in affected bodies is detected in biological fluids. Therefore, the analytical sensitivity of the selected peptides was tested in two biological matrices, namely, urine and serum. The matrix effect was investigated to understand how real biological fluids could modify the binding efficiency of the peptides.
FIG. 4 depicts the ELISA data using solutions of peptides with or without the urine and serum obtained coating clear 96-well plates with 10^^5 and 10^^6 copies/mL of intact ZIKV particles. Urine and serum were 1:1 and 1:10 diluted, respectively, with a concentrated peptide PBS solution (10 mM PBS, pH 7.4) to obtain a peptide final concentration of 0.5 μM for C3 and C6, 5 μM for C7 and 20 μM for mono-arm peptides (P2 and X1).

Some results are limits rather than exact numbers.

In the case of “C8: clamp peptide MDSPIK (22) - bridge GPGCCGPG (32) - KTDAYS (27) (MDSPIKGPGCCGPGKTDAYS; C7 Binds to Active Site 2; Bridge peptide; C4 Binds to Active Site 1)”, in the data set on intact ZIKV particles [1], the LOD was 4.7 log[ZIKV], copies/mL; the FPLR maximum is 0.82 ΔA; the FPLR minimum is 0.03 ΔA; the Long-term stability was >1 Month. In the data set on intact ZIKV particles [1], the “FPLR C50” value is 6.2 log[ZIKV], copies/mL; the FPLR slope is reported as 33.9; the “FPLR Dynamic Range” value was 5-7 log[ZIKV], copies/mL.
Take “C3: clamp peptide WPWIGT (18) - bridge GPGCCGPG (32) - KRNATP (26) (WPWIGTGPGCCGPGKRNATP; C3 Binds to Active Site 2; Bridge peptide; C3 Binds to Active Site 1)”: in the data set with intact ZIKV particles [1], the LOD was 3.5 log[ZIKV], copies/mL; the FPLR maximum is given as 0.67 ΔA; the FPLR minimum is 0.05 ΔA; the Long-term stability is >1 Month. Besides, in the data set on intact ZIKV particles [1], the “FPLR C50” value is 5.3 log[ZIKV], copies/mL; the FPLR slope turned out to be 8.7; the “dynamic range of dose-response curve (orders of magnitude)” value (“dynamic range of dose-response curve” below) is reported as “three-order of magnitude”; the “FPLR Dynamic Range” value is 4-7 log[ZIKV], copies/mL. In data set [2] (all DENV serotypes, 10^5 copies/mL coating), the “signal decrease DENV vs ZIKV” value is “around 70%”. In the data set on intact ZIKV particles [3], the “ELISA performance in urine and serum” value is on record as “better performance in urine than serum”.
As to “C-LRGHA (CLRGHA; P2) [mono-arm pentapeptide with N-terminal cysteine]”, in the data set on intact ZIKV particles [1], the LOD was 4.5 log[ZIKV], copies/mL; the FPLR maximum was 0.94 ΔA; the FPLR minimum is recorded as 0.04 ΔA; the Long-term stability is listed as >1 Month. In the data set with intact ZIKV particles [1], the “FPLR C50” value is 6.2 log[ZIKV], copies/mL; the FPLR slope is reported as 19.9; the “FPLR Dynamic Range” value was 5-7 log[ZIKV], copies/mL.
Take “C-SWPGQ (CSWPGQ; P1) [mono-arm pentapeptide with N-terminal cysteine]”: in the data set on intact ZIKV particles [1], the LOD was 6.8 log[ZIKV], copies/mL; the Long-term stability is >1 Month; the “dynamic range of dose-response curve” value is reported as “one order of magnitude”; the “FPLR Dynamic Range” value is 7-8 log[ZIKV], copies/mL.
As for “C5: clamp peptide AGRRP (20) - bridge GPGCCGPG (32) - SWPGQ (24) (AGRRPGPGCCGPGSWPGQ; C5 Binds to Active Site 2; Bridge peptide; C1 Binds to Active Site 1)”, in the data set on intact ZIKV particles [1], the LOD is 5.8 log[ZIKV], copies/mL; the FPLR maximum is listed as 0.17 ΔA; the FPLR minimum is reported as 0.01 ΔA; the Long-term stability is >1 Month. In addition, in the data set with intact ZIKV particles [1], the “FPLR C50” value is 6.4 log[ZIKV], copies/mL; the FPLR slope is 25.6; the “FPLR Dynamic Range” value was 6-7 log[ZIKV], copies/mL.
Regarding “C2: clamp peptide WPHTQ (16) - bridge GPGCCGPG (32) - LRGHA (25) (WPHTQGPGCCGPGLRGHA; C1 Binds to Active Site 2; Bridge peptide; C2 Binds to Active Site 1)”, in the data set with intact ZIKV particles [1], the LOD was 4.5 log[ZIKV], copies/mL; the FPLR maximum is listed as 0.55 ΔA; the FPLR minimum is 0.05 ΔA; the Long-term stability is >1 Month. In addition, in the data set on intact ZIKV particles [1], the “FPLR C50” value is 6.2 log[ZIKV], copies/mL; the FPLR slope was 25.4; the “FPLR Dynamic Range” value is 5-7 log[ZIKV], copies/mL.
For “C-KTDAYS (CKTDAYS; X2) [mono-arm hexapeptide with N-terminal cysteine]”, in the data set with intact ZIKV particles [1], the LOD is 5.8 log[ZIKV], copies/mL; the FPLR maximum is given as 0.91 ΔA; the FPLR minimum was 0.01 ΔA; the Long-term stability is given as >1 Month. In the data set on intact ZIKV particles [1], the “FPLR C50” value was 6.1 log[ZIKV], copies/mL; the FPLR slope turned out to be 27.7; the “FPLR Dynamic Range” value was 6-8 log[ZIKV], copies/mL.
Take “C6: clamp peptide AGRRP (20) - bridge GPGCCGPG (32) - LRGHA (25) (AGRRPGPGCCGPGLRGHA; C5 Binds to Active Site 2; Bridge peptide; C2 Binds to Active Site 1)”: in the data set on intact ZIKV particles [1], the LOD was 3.5 log[ZIKV], copies/mL; the FPLR maximum was 0.53 ΔA; the FPLR minimum is on record as 0.05 ΔA; the Long-term stability is on record as >1 Month. In the data set on intact ZIKV particles [1], the “FPLR C50” value was 5.2 log[ZIKV], copies/mL; the FPLR slope worked out at 10.1; the “dynamic range of dose-response curve” value is “three-order of magnitude”; the “FPLR Dynamic Range” value was 4-7 log[ZIKV], copies/mL. Moreover, the “signal decrease DENV vs ZIKV” value in data set [2] (DENV-2, 10^5 copies/mL coating) came to 45%. The “signal decrease DENV vs ZIKV” value in data set [2] (DENV-3, 10^5 copies/mL coating) came out at 55%. The “ELISA performance in urine and serum” value in the data set with intact ZIKV particles [3] is on record as “strong decrease in the signal”.
Take “C-KRNATP (CKRNATP; X1) [mono-arm hexapeptide with N-terminal cysteine]”: in the data set with intact ZIKV particles [1], the LOD is 4.8 log[ZIKV], copies/mL; the FPLR maximum is listed as 0.98 ΔA; the FPLR minimum is given as 0.03 ΔA; the Long-term stability is >1 Month. For the same substance, in the data set with intact ZIKV particles [1], the “FPLR C50” value was 6.1 log[ZIKV], copies/mL; the FPLR slope was 20.8; the “FPLR Dynamic Range” value is 5-7 log[ZIKV], copies/mL.
For the substance “C4: clamp peptide WPWIGT (18) - bridge GPGCCGPG (32) - KTDAYS (27) (WPWIGTGPGCCGPGKTDAYS; C3 Binds to Active Site 2; Bridge peptide; C4 Binds to Active Site 1)”, in the data set on intact ZIKV particles [1], the LOD is 5.7 log[ZIKV], copies/mL; the FPLR maximum was 0.40 ΔA; the FPLR minimum is recorded as 0.02 ΔA; the Long-term stability is listed as >1 Month. Further, in the data set with intact ZIKV particles [1], the “FPLR C50” value was 6.3 log[ZIKV], copies/mL; the FPLR slope was 32.8; the “FPLR Dynamic Range” value is 6-7 log[ZIKV], copies/mL.

The record behind these values is patent publication US11830582B2, “Methods of designing novel antibody mimetics for use in detecting antigens and as therapeutic agents” (UNIVERSITY OF MIAMI, priority 2018, dated 2023).
